Results on four compounds are retold here after article PMC10671360, “In Silico and In Vitro Study towards the Rational Design of 4,4′-Disarylbisthiazoles as a Selective α-Synucleinopathy Biomarker” (International Journal of Molecular Sciences, 2023).

For one experiment, the target named is T1, Aβ1−42 fibrils (Homo sapiens, UniProt P05067).
T1 construct: 1 mg of β-amyloid1–42 peptide (Abcam, Cambridge, UK); purchased Abcam
Description: Competition binding assay against [^3H]PiB, Aβ1−42 fibrils. The note with it: read-out: Ki Aβ. Here is the method: After the dissolution of 1 mg of β-amyloid1–42 peptide (Abcam, Cambridge, UK) in 50 μL of DMSO, 925 μL of Milli-Q® water was added to it, and the mixture was stirred. Finally, 25 μL of 1M Tris HCl, pH 7.4 was added to bring the final peptide concentration to 1 mg/mL. The mixture was then left to incubate at 37 °C for 30 h with shaking at 900 rpm. To separate the non-aggregated monomers from the formed fibrils, the reaction mixture was centrifuged at 12,000× g for 5 min, and the resulting pellet was washed three times with 500 μL of 20 mM Tris-HCl, pH 7.4. The supernatants from the three centrifugation steps were combined, and the concentration of the monomer in the resulting supernatant was determined in a BCA assay (Thermo Fisher Scientific, Waltham, MA, USA) (with a BSA standard curve). Determination of the concentration of fibrils formed was carried out by subtracting the amount of β-amyloid1−42 peptide monomer in the supernatant from the initial amount used for fibrillation.
(§1) The pellets of the fibrils obtained above (Section 4.2.1) were resuspended in 20 mM of Tris-HCl, pH 7.4 and diluted as needed for the binding assays.
(§2) A fixed concentration of [^3H]DCVJ (10 nM) and α-synuclein aggregates (125 nM), prepared as described above (Section 4.2.3), was used with different final concentrations of the DABTAs from 0.01 to 100 nM (see SI Figure S1). The experiment was carried out in quintuplicate for each concentration. The mixture was incubated for 2 h in a final volume of 200 μL per well after dilution with 20 mM of Tris-HCl, pH 7.4. The incubated mixtures were filtered through a Perkin Elmer GF/B glass filter via a TOMTEC cell harvester and immediately washed thrice with 1 mL of deionized water. The filters containing the bound ligands were dried and afterwards mixed with 3 mL of BetaPlate Scint solution (Perkin Elmer Life Sciences, Waltham, MA, USA) and left there for 2 h before counting in a Wallac 1450 MicroBeta TriLux Liquid Scintillation Counter (PerkinElmer Life Sciences, Waltham, MA, USA). For the determination of the inhibition constants, data were analyzed using GraphPad Prism software (version 7.0) to obtain IC50 values by fitting the data to the equation Y = bottom + (top − bottom)/(1 + 10(x − log IC50)). Ki values were calculated from IC50 values using the equation Ki = IC50/(1 + [radioligand]/Kd). […] Further protocol was carried out as for [^3H]DCVJ (see SI Figure S3).
Further procedures followed the same already described in Section 4.2.3.1 (See SI Figure S4).

In experiment [1] the target is T2, recombinant α-syn fibrils (Homo sapiens, UniProt P37840).
T2 construct: made in house
The experiment in a line: Competition binding assay against [^3H]PiB, α-syn fibrils. The settings on record: for Selectivity Aβ/α-syn / Selectivity tau/α-syn: ratio of Ki, [^3H]PiB was used.

Another experiment has as its target tau fibrils (Homo sapiens, UniProt P10636). The experiment in a line: Competition binding assay against [^3H]PiB, tau fibrils. How it is done: as §2, with “Recombinant tau monomer (R&D systems, Minneapolis, MN, USA) was dissolved in 20 mM of Tris HCl, pH 8.0, 100 mM of NaCl, 25 μM of low-MW heparin, and 0.5 mM of dithiothreitol to a final concentration of 300 µg/mL. The mixture was incubated with shaking at 900 rpm at 37 °C for 48 h. To separate the non-aggregated monomers from the formed fibrils, the reaction mixture was centrifuged at 12,000× g for 5 min, and the resulting pellet was washed three times with 500 μL of 20 mM Tris-HCl, pH 7.4. The supernatants from the three centrifugation steps were combined, and the concentration of the monomer in the resulting supernatant was determined in a BCA assay(Thermo Fisher Scientific, Waltham, MA, USA) (with a BSA standard curve). Determination of the concentration of fibrils formed was carried out by subtracting the amount of tau peptide monomer in the supernatant from the initial amount used for fibrillation. The pellets of the fibrils obtained above (Section 4.2.1) were resuspended in 20 mM of Tris-HCl, pH 7.4 and diluted as needed for the binding assays. A fixed” for “A fixed”, “Figure S3). […] Further procedures followed the same already described in Section 4.2.3.1 (See SI Figure S4).” for “Figure S3).”

In experiment [2] the target is T2, recombinant α-syn fibrils. Description: Competition binding assay against [^3H]DCVJ, α-syn fibrils. The note with it: for Selectivity Aβ/α-syn / Selectivity tau/α-syn: ratio of Ki, [^3H]DCVJ was used. Here is the method:
The incubation of purified recombinant α-synuclein monomer (10 mg/mL) obtained as described by Uzuegbunam was carried out in PBS (pH 7.4) at 37 °C. The solution was left shaking at 900 rpm in an Eppendorf Thermomixer for up to 84 h. Determination of the concentration of the formed fibrils (α-syn) was carried out following the centrifugation of the reaction vial at 12,000× g for 5 min. The pellet obtained was washed thrice with 20 mM of Tris-HCl, pH 7.4. The supernatants from the three centrifugation steps were combined, and the concentration of the monomer in the resulting supernatant was determined in a BCA assay (Thermo Fisher Scientific, Waltham, MA, USA) (with a BSA standard curve). Determination of the concentration of α-syn was carried out by subtracting the amount of α-synuclein monomer in the supernatant from the initial amount used for fibrillation.
as §1, §2

The mark [3] stands for this setting: [^3H]DCVJ was used (10 nM), α-synuclein aggregates 125 nM.

tau fibrils, sequence (P10636 2-758): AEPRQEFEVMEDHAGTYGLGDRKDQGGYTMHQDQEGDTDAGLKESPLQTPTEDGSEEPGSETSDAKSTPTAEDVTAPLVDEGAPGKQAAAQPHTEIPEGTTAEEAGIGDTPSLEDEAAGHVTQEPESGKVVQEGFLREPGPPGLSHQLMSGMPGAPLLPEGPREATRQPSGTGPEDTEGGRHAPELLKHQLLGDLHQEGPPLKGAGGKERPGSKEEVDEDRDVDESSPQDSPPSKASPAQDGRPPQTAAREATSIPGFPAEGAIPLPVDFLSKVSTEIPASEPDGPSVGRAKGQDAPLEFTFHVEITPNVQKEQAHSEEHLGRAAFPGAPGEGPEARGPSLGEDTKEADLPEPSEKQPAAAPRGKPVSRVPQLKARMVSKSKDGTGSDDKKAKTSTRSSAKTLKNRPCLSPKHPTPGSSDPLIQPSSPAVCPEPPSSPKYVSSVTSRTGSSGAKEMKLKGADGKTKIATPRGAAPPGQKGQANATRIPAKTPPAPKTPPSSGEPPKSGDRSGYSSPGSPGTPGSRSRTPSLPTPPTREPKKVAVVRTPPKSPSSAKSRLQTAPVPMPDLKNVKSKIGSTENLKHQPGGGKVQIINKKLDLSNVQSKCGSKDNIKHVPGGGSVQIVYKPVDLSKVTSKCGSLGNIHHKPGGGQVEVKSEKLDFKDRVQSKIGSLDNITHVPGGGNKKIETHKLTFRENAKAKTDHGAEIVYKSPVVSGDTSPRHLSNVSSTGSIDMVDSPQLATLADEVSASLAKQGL
T1 sequence (P05067 672-713): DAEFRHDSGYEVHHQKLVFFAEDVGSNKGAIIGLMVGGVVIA

Turning to `FCCOc1cnc(-c2csc(-c3nc(-c4cnc5c(c4)OCO5)cs3)n2)nc1` [f4, 6-(4′-(5-(2-Fluoroethoxy)pyrimidin-2-yl)-[2,2′-bithiazol]-4-yl)-[1,3]dioxolo[4,5-b]pyridine], the Ki – broadly, a measure of affinity in units of concentration, obtained from inhibition or displacement – was determined as 185 nM on Aβ1−42 fibrils, 1.51 nM in experiment [1], 766 nM at tau fibrils and 0.99 nM in experiment [2] (setting [3]). Besides, the “Selectivity Aβ/α-syn” value in experiment [1] came out at 122.6; in experiment [2] it was 253.1. In addition, the “Selectivity tau/α-syn” value in experiment [1] is recorded as 507.5; in experiment [2], 469.6.

For `Fc1ncc(-c2csc(-c3nc(-c4cnc5c(c4)OCO5)cs3)n2)cn1` [d10], the inhibition constant Ki on Aβ1−42 fibrils stood at 214 nM; in experiment [1], 4.75 nM; on tau fibrils, 434 nM; in experiment [2] (setting [3]), 1.36 nM. The “Selectivity Aβ/α-syn” value in experiment [1] is recorded as 45.1; in experiment [2], 299.1. Also, the “Selectivity tau/α-syn” value is 91.5 in experiment [1] and >735.3 in experiment [2].

On to `FCCOc1cnc(-c2csc(-c3nc(-c4ccc5c(c4)OCO5)cs3)n2)nc1` [f5, 4-(Benzo[d][1,3]dioxol-5-yl)-4′-(5-(2-fluoroethoxy)pyrimidin-2-yl)-2,2′-bithiazole], for which the Ki was 155 nM at Aβ1−42 fibrils, 2.88 nM in experiment [1], 516 nM on tau fibrils and 2.27 nM in experiment [2] (setting [3]). Also, the figures for the “Selectivity Aβ/α-syn” value in experiment [1] and in experiment [2] were 53.8 and 58.9, respectively. Also, the “Selectivity tau/α-syn” value is 179.2 in experiment [1] and 227.0 in experiment [2].

`FCCOCCOc1cnc(-c2csc(-c3nc(-c4ccc5c(c4)OCO5)cs3)n2)nc1` [f6, 4-(Benzo[d][1,3]dioxol-5-yl)-4′-(5-(2-(2-fluoroethoxy)ethoxy)pyrimidin-2-yl)-2,2′-bithiazole]: the Ki at Aβ1−42 fibrils was 96.7 nM; in experiment [1] it was 4.89 nM; at tau fibrils, 362 nM; in experiment [2] (setting [3]) it was 0.5 nM. Further, the “Selectivity Aβ/α-syn” value was found to be 19.8 in experiment [1] and 395.6 in experiment [2]. The “Selectivity tau/α-syn” value in experiment [1] is 74.1; in experiment [2], 874.4. For the same compound, the “Ki α-syn” value in experiment [2] (setting [3]) was “subnanomolar”.
